System: participants with SSc-RP
Experiment: Frequency of weekly symptomatic RP attacks (patient diary), Phase 2a Part A
Type: in vivo, human
Conditions: ITT Part A
Excerpt: Percent change from baseline evaluation for frequency of weekly RP attacks were or will be used as the primary efficacy variable. The sponsor-developed participant-informed diary will be used to record data. Frequency of weekly RP attacks is defined as the total number of RP attacks divided by the number of days with available diary data within the last 7 days of each dosing period then multiplied by 7. Total number of RP attacks during the last 7 days of screening period divided by the number of days with available data then multiplied by 7 will be used as baseline for the analysis of all periods. The variable will be calculated as follows: […]
Percent change from baseline evaluation for frequency of weekly RP attacks was and will be the primary efficacy endpoint. Frequency of weekly RP attacks is defined as the total number of RP attacks divided by the number of days with available diary data within the last 7 days of each dosing period then multiplied by 7. Total number of RP attacks during the last 7 days of screening period divided by the number of days with available data then multiplied by 7 will be used as baseline for the analysis of all periods.

[1] = Cilnidipine 10 mg, n=1, Excluding Outliers
[2] = Cilnidipine 10 mg, n=1, by Baseline RCS, first block (RCS <5.0)
[3] = Cilnidipine 20 mg, n=2, Excluding Outliers
[4] = Cilnidipine 20 mg, n=2, by Baseline RCS, first block (RCS <5.0)
[5] = Pooled Cilnidipine 10 mg and Cilnidipine 10 mg + Tadalafil 5 mg, n=1, by Baseline RCS, second block (RCS >5.0)
[6] = Pooled Cilnidipine 10 mg and Cilnidipine 10 mg + Tadalafil 5 mg, n=2, by Baseline RCS, first block (RCS <5.0)
[7] = Pooled Cilnidipine 10 mg and Cilnidipine 10 mg + Tadalafil 5 mg, n=3
[8] = Pooled Cilnidipine 10 mg and Cilnidipine 10 mg + Tadalafil 5 mg, n=3, Excluding Outliers
[9] = Pooled Cilnidipine 10 mg and Cilnidipine 10 mg + Tadalafil 5 mg, n=1, excluding outliers, second Baseline RCS subgroup, last 7 days of dosing
[10] = Pooled Cilnidipine 10 mg and Cilnidipine 10 mg + Tadalafil 5 mg, n=2, excluding outliers, first Baseline RCS subgroup, last 7 days of dosing
[11] = Pooled Cilnidipine 20 mg and Cilnidipine 20 mg + Tadalafil 5 mg, n=1, by Baseline RCS, second block (RCS >5.0)
[12] = Pooled Cilnidipine 20 mg and Cilnidipine 20 mg + Tadalafil 5 mg, n=3, by Baseline RCS, first block (RCS <5.0)
[13] = Pooled Cilnidipine 20 mg and Cilnidipine 20 mg + Tadalafil 5 mg, n=4
[14] = Pooled Cilnidipine 20 mg and Cilnidipine 20 mg + Tadalafil 5 mg, n=4, Excluding Outliers
[15] = Pooled Cilnidipine 20 mg and Cilnidipine 20 mg + Tadalafil 5 mg, n=1, excluding outliers, second Baseline RCS subgroup, last 7 days of dosing

COCCOC(=O)C1=C(C)NC(C)=C(C(=O)OC/C=C/c2ccccc2)C1c1cccc([N+](=O)[O-])c1 (stereo not drawn) [Cilnidipine]
Weekly Symptomatic RP Attacks Change from Baseline, Mean (Cilnidipine 10 mg, n=1): −7.00
Weekly Symptomatic RP Attacks Change from Baseline, Median (Cilnidipine 10 mg, n=1): −7.00
Weekly Symptomatic RP Attacks Percent Change from Baseline, Mean (Cilnidipine 10 mg, n=1): −33.33%
Weekly Symptomatic RP Attacks Percent Change from Baseline, Median (Cilnidipine 10 mg, n=1): −33.33%
Weekly Symptomatic RP Attacks, Mean (Cilnidipine 10 mg, n=1): 14.00
Weekly Symptomatic RP Attacks, Median (Cilnidipine 10 mg, n=1): 14.00
Weekly Symptomatic RP Attacks Change from Baseline, Mean [1]: −7.00
Weekly Symptomatic RP Attacks Change from Baseline, Median [1]: −7.00
Weekly Symptomatic RP Attacks Percent Change from Baseline, Mean [1]: −33.33%
Weekly Symptomatic RP Attacks Percent Change from Baseline, Median [1]: −33.33%
Weekly Symptomatic RP Attacks, Mean [1]: 14.00
Weekly Symptomatic RP Attacks, Median [1]: 14.00
Weekly Symptomatic RP Attacks Change from Baseline, Mean [2]: −7.00
Weekly Symptomatic RP Attacks Change from Baseline, Median [2]: −7.00
Weekly Symptomatic RP Attacks Percent Change from Baseline, Mean [2]: −33.33%
Weekly Symptomatic RP Attacks Percent Change from Baseline, Median [2]: −33.33%
Weekly Symptomatic RP Attacks, Mean [2]: 14.00
Weekly Symptomatic RP Attacks, Median [2]: 14.00
Weekly Symptomatic RP Attacks Change from Baseline, Mean (Cilnidipine 20 mg, n=2): −4.50
Weekly Symptomatic RP Attacks Change from Baseline, Median (Cilnidipine 20 mg, n=2): −4.50
Weekly Symptomatic RP Attacks Percent Change from Baseline, Mean (Cilnidipine 20 mg, n=2): −33.73%
Weekly Symptomatic RP Attacks Percent Change from Baseline, Median (Cilnidipine 20 mg, n=2): −33.73%
Weekly Symptomatic RP Attacks, Mean (Cilnidipine 20 mg, n=2): 8.00
Weekly Symptomatic RP Attacks, Median (Cilnidipine 20 mg, n=2): 8.00
Weekly Symptomatic RP Attacks Change from Baseline, Mean [3]: −4.50
Weekly Symptomatic RP Attacks Change from Baseline, Median [3]: −4.50
Weekly Symptomatic RP Attacks Percent Change from Baseline, Median [3]: −33.73%
Weekly Symptomatic RP Attacks, Mean [3]: 8.00
Weekly Symptomatic RP Attacks, Median [3]: 8.00
Weekly Symptomatic RP Attacks Change from Baseline, Mean [4]: −4.50
Weekly Symptomatic RP Attacks Change from Baseline, Median [4]: −4.50
Weekly Symptomatic RP Attacks Percent Change from Baseline, Mean [4]: −33.73%
Weekly Symptomatic RP Attacks Percent Change from Baseline, Median [4]: −33.73%
Weekly Symptomatic RP Attacks, Mean [4]: 8.00
Weekly Symptomatic RP Attacks, Median [4]: 8.00
Weekly Symptomatic RP Attacks Change from Baseline, Mean [5]: −3.00
Weekly Symptomatic RP Attacks Change from Baseline, Median [5]: −3.00
Weekly Symptomatic RP Attacks Percent Change from Baseline, Mean [5]: −42.86%
Weekly Symptomatic RP Attacks Percent Change from Baseline, Median [5]: −42.86%
Weekly Symptomatic RP Attacks, Mean [5]: 4.00
Weekly Symptomatic RP Attacks, Median [5]: 4.00
Weekly Symptomatic RP Attacks Change from Baseline, Mean [6]: −5.50
Weekly Symptomatic RP Attacks Change from Baseline, Median [6]: −5.50
Weekly Symptomatic RP Attacks Percent Change from Baseline, Mean [6]: −38.89%
Weekly Symptomatic RP Attacks Percent Change from Baseline, Median [6]: −38.89%
Weekly Symptomatic RP Attacks, Mean [6]: 9.50
Weekly Symptomatic RP Attacks, Median [6]: 9.50
Weekly Symptomatic RP Attacks Change from Baseline, Mean [7]: −4.67
Weekly Symptomatic RP Attacks Change from Baseline, Median [7]: −4.00
Weekly Symptomatic RP Attacks Percent Change from Baseline, Mean [7]: −40.21%
Weekly Symptomatic RP Attacks Percent Change from Baseline, Median [7]: −42.86%
Weekly Symptomatic RP Attacks, Mean [7]: 7.67
Weekly Symptomatic RP Attacks, Median [7]: 5.00
Weekly Symptomatic RP Attacks Change from Baseline, Mean [8]: −4.67
Weekly Symptomatic RP Attacks Change from Baseline, Median [8]: −4.00
Weekly Symptomatic RP Attacks Percent Change from Baseline, Mean [8]: −40.21%
Weekly Symptomatic RP Attacks Percent Change from Baseline, Median [8]: −42.86%
Weekly Symptomatic RP Attacks, Mean [8]: 7.67
Weekly Symptomatic RP Attacks, Median [8]: 5.00
Weekly Symptomatic RP Attacks Change from Baseline, Mean [9]: −3.00
Weekly Symptomatic RP Attacks Change from Baseline, Median [9]: −3.00
Weekly Symptomatic RP Attacks Percent Change from Baseline, Mean [9]: −42.86%
Weekly Symptomatic RP Attacks Percent Change from Baseline, Median [9]: −42.86%
Weekly Symptomatic RP Attacks, Mean [9]: 4.00
Weekly Symptomatic RP Attacks, Median [9]: 4.00
Weekly Symptomatic RP Attacks Change from Baseline, Mean [10]: −5.50
Weekly Symptomatic RP Attacks Change from Baseline, Median [10]: −5.50
Weekly Symptomatic RP Attacks Percent Change from Baseline, Mean [10]: −38.89%
Weekly Symptomatic RP Attacks Percent Change from Baseline, Median [10]: −38.89%
Weekly Symptomatic RP Attacks, Mean [10]: 9.50
Weekly Symptomatic RP Attacks, Median [10]: 9.50
Weekly Symptomatic RP Attacks Change from Baseline, Mean [11]: −0.50
Weekly Symptomatic RP Attacks Change from Baseline, Median [11]: −0.50
Weekly Symptomatic RP Attacks Percent Change from Baseline, Mean [11]: −4.76%
Weekly Symptomatic RP Attacks Percent Change from Baseline, Median [11]: −4.76%
Weekly Symptomatic RP Attacks, Mean [11]: 10.00
Weekly Symptomatic RP Attacks, Median [11]: 10.00
Weekly Symptomatic RP Attacks Change from Baseline, Mean [12]: −4.67
Weekly Symptomatic RP Attacks Change from Baseline, Median [12]: −5.00
Weekly Symptomatic RP Attacks Percent Change from Baseline, Mean [12]: −31.75%
Weekly Symptomatic RP Attacks Percent Change from Baseline, Median [12]: −28.57%
Weekly Symptomatic RP Attacks, Mean [12]: 9.67
Weekly Symptomatic RP Attacks, Median [12]: 11.00
Weekly Symptomatic RP Attacks Change from Baseline, Mean [13]: −3.63
Weekly Symptomatic RP Attacks Change from Baseline, Median [13]: −3.50
Weekly Symptomatic RP Attacks Percent Change from Baseline, Mean [13]: −25.00%
Weekly Symptomatic RP Attacks Percent Change from Baseline, Median [13]: −28.17%
Weekly Symptomatic RP Attacks, Mean [13]: 9.75
Weekly Symptomatic RP Attacks, Median [13]: 10.50
Weekly Symptomatic RP Attacks Change from Baseline, Mean [14]: −3.63
Weekly Symptomatic RP Attacks Change from Baseline, Median [14]: −3.50
Weekly Symptomatic RP Attacks Percent Change from Baseline, Mean [14]: −25.00%
Weekly Symptomatic RP Attacks Percent Change from Baseline, Median [14]: −28.17%
Weekly Symptomatic RP Attacks, Mean [14]: 9.75
Weekly Symptomatic RP Attacks, Median [14]: 10.50
Weekly Symptomatic RP Attacks Change from Baseline, Mean [15]: −0.50
Weekly Symptomatic RP Attacks Change from Baseline, Median [15]: −0.50
Weekly Symptomatic RP Attacks Percent Change from Baseline, Mean [15]: −4.76%
Weekly Symptomatic RP Attacks Percent Change from Baseline, Median [15]: −4.76%
Weekly Symptomatic RP Attacks, Mean [15]: 10.00
Weekly Symptomatic RP Attacks, Median [15]: 10.00
Weekly Symptomatic RP Attacks Change from Baseline, Mean (Pooled Cilnidipine 20 mg and Cilnidipine 20 mg + Tadalafil 5 mg, n=3, excluding outliers, first Baseline RCS subgroup, last 7 days of dosing): −4.67
